Source: article PMC11045757, “Group 3 medulloblastoma transcriptional networks collapse under domain specific EP300/CBP inhibition” (Nature Communications, 2024)

Test system: 460 barcoded cancer cell lines
Experiment: PRISM pooled barcoded cancer cell line growth screen, 10-point dose-response, 5 days, AUC
Format: cell-based
Set-up: scale not given here
Excerpt: Several small molecule inhibitors of distinct protein domains of EP300/CBP are available, though the majority target the histone acetyltransferase domain (HAT) or bromodomain (BRD)[5],[10],[21],[22]. […] We used these tools to investigate the relative contribution of the EP300/CBP BRD or HAT domain to tumor cell growth (Fig. 1a). To do so, we performed 10-point, dose-response growth assays using mixed pools of 460 barcoded cancer cell lines, over five days of treatment in vitro[33],[34]. Growth was measured using an area-under-the-curve (AUC) approach (Supplementary Table 1, Supplementary Fig. 1a). […] Given potential differences in compound penetration and solubility, and to compare the relative cell line and tumor-specific effects of these two compounds in assays performed non-simultaneously, we performed a median normalization of each dataset (Supplementary Table 2).

CNC(=O)Nc1ccc2c(c1)CCC21OC(=O)N(CC(=O)N(Cc2ccc(F)cc2)C(C)C(F)(F)F)C1=O (centres unmarked) [Compound A485]
AUC (22RV1, Prostate Cancer): 0.5834 | AUC (42MGBA, Glioma): 0.8468 | AUC (143B, Osteosarcoma): 1 | AUC (639V, Bladder Cancer): 0.8274 | AUC (647V, Bladder Cancer): 0.6672 | AUC (697, B-cell Leukemia): 0.5617 | AUC (769P, Kidney Cancer): 0.6332 | AUC (5637, Bladder Cancer): 0.8843 | AUC (8305C, Thyroid Cancer): 0.7544 | AUC (A101D, Melanoma): 0.9258 | AUC (A204, Rhabdoid): 0.6513 | AUC (A253, Head and Neck Cancer): 0.8228 | AUC (A375, Melanoma): 0.749 | AUC (A427, Lung Cancer): 0.6968 | AUC (A673, Ewing Sarcoma): 1 | AUC (A1207, Glioblastoma): 0.7712 | AUC (ACHN, Kidney Cancer): 0.5417 | AUC (AGS, Gastric Cancer): 0.7849 | AUC (AM38, Glioblastoma): 1 | AUC (AN3CA, Endometrial/Uterine Cancer): 0.8692 | AUC (AU565, Breast Cancer): 0.7944 | AUC (BDCM, AML): 0.9026 | AUC (BEN, Lung Cancer): 0.8869 | AUC (BFTC905, Bladder Cancer): 0.6715 | AUC (BHT101, Thyroid Cancer): 0.6133 | AUC (BICR16, Head and Neck Cancer): 0.6804 | AUC (BICR18, Head and Neck Cancer): 1 | AUC (BICR22, Head and Neck Cancer): 0.7556 | AUC (BICR31, Head and Neck Cancer): 0.7077 | AUC (BICR56, Head and Neck Cancer): 0.6769 | AUC (BT16, Rhabdoid): 1 | AUC (BT474, Breast Cancer): 0.9498 | AUC (C32, Melanoma): 0.9339 | AUC (C8166, Lymphoma): 0.6916 | AUC (CADOES1, Ewing Sarcoma): 0.6865 | AUC (CAKI1, Kidney Cancer): 0.6849 | AUC (CAL27, Head and Neck Cancer): 0.7545 | AUC (CAL54, Kidney Cancer): 0.4813 | AUC (CAL62, Thyroid Cancer): 0.8629 | AUC (CAL78, Chondrosarcoma): 0.8774 | AUC (CAL120, Breast Cancer): 0.8951 | AUC (CAOV3, Ovarian Cancer): 0.8124 | AUC (CBAGPN, Ewing Sarcoma): 0.8343 | AUC (CCK81, Colon/Colorectal Cancer): 0.7195 | AUC (CHAGOK1, Lung Cancer): 0.9372 | AUC (CHL1, Melanoma): 0.6205 | AUC (CHLA06ATRT, Rhabdoid): 1 | AUC (CHLA10, Ewing Sarcoma): 0.7781 | AUC (CHLA15, Neuroblastoma): 0.7188 | AUC (CHLA57, Ewing Sarcoma): 0.9584 | AUC (CHP212, Neuroblastoma): 0.8072 | AUC (CI1, B-cell Lymphoma): 0.7779 | AUC (CJM, Melanoma): 0.6266 | AUC (CL11, Colon/Colorectal Cancer): 0.6639 | AUC (CL34, Colon/Colorectal Cancer): 0.6654 | AUC (CMLT1, CML): 0.6607 | AUC (COGAR359, Rhabdoid): 1 | AUC (COGE352, Ewing Sarcoma): 1 | AUC (COLO320, Colon/Colorectal Cancer): 1 | AUC (COLO678, Colon/Colorectal Cancer): 0.7938 | AUC (COLO783, Melanoma): 0.9045 | AUC (COLO792, Melanoma): 0.7929 | AUC (CORL23, Lung Cancer): 0.831 | AUC (CORL105, Lung Cancer): 0.7616 | AUC (COV318, Ovarian Cancer): 0.7366 | AUC (COV434, Ovarian Cancer): 0.6392 | AUC (COV644, Ovarian Cancer): 0.7528 | AUC (CW2, Colon/Colorectal Cancer): 0.9324 | AUC (CW9019, Rhabdomyosarcoma): 0.6452 | AUC (DAOY, Medulloblastoma): 0.7773 | AUC (DEL, Lymphoma): 0.7007 | AUC (DETROIT562, Head and Neck Cancer): 0.6189 | AUC (DKMG, Glioblastoma): 0.8817 | AUC (DL, Rhabdoid): 0.6996 | AUC (DMS53, Lung Cancer): 0.6382 | AUC (DMS273, Lung Cancer): 0.7762 | AUC (DND41, T-acute leukemia): 0.7502 | AUC (DU145, Prostate Cancer): 0.8463 | AUC (DU4475, Breast Cancer): 0.4233 | AUC (DV90, Lung Cancer): 0.6128 | AUC (EB1, Lymphoma): 1 | AUC (EBC1, Lung Cancer): 0.8735 | AUC (ECC10, Gastric Cancer): 0.8444 | AUC (ECGI10, Esophageal Cancer): 0.8435 | AUC (EFE184, Endometrial/Uterine Cancer): 1 | AUC (EFM19, Breast Cancer): 0.5992 | AUC (EFO21, Ovarian Cancer): 0.9024 | AUC (EM2, CML): 0.902 | AUC (EN, Endometrial/Uterine Cancer): 0.9736 | AUC (ES2, Ovarian Cancer): 0.7477 | AUC (ESS1, Endometrial/Uterine Cancer): 0.9044 | AUC (EW8, Ewing Sarcoma): 0.7371 | AUC (EWS502, Ewing Sarcoma): 0.6563 | AUC (FADU, Head and Neck Cancer): 0.9573 | AUC (FTC133, Thyroid Cancer): 0.8254 | AUC (FTC238, Thyroid Cancer): 0.7484 | AUC (G292CLONEA141B1, Osteosarcoma): 1 | AUC (G361, Melanoma): 0.6803 | AUC (G401, Rhabdoid): 1 | AUC (G402, Rhabdoid): 0.9975 | AUC (GB1, Glioblastoma): 0.7582 | AUC (GCT, Pleomorphic Sarcoma): 0.8933 | AUC (GI1, Glioblastoma): 0.757 | AUC (GOS3, Glioblastoma): 0.9534 | AUC (GP2D, Colon/Colorectal Cancer): 0.7575 | AUC (GRANTA519, Lymphoma): 0.8493 | AUC (GSS, Gastric Cancer): 0.6579 | AUC (HARA, Lung Cancer): 0.7108 | AUC (HCC33, Lung Cancer): 0.908 | AUC (HCC38, Breast Cancer): 0.7435 | AUC (HCC44, Lung Cancer): 0.6558 | AUC (HCC56, Colon/Colorectal Cancer): 0.6212 | AUC (HCC78, Lung Cancer): 0.7931 | AUC (HCC95, Lung Cancer): 0.8823 | AUC (HCC515, Lung Cancer): 0.6901 | AUC (HCC1419, Breast Cancer): 0.6161 | AUC (HCC1428, Breast Cancer): 0.6381 | AUC (HCC1438, Lung Cancer): 0.9014 | AUC (HCC1806, Breast Cancer): 0.8548 | AUC (HCC1937, Breast Cancer): 0.6971 | AUC (HCC2108, Lung Cancer): 1 | AUC (HCC4006, Lung Cancer): 0.7024 | AUC (HCT116, Colon/Colorectal Cancer): 0.9205 | AUC (HDMYZ, Lymphoma): 1 | AUC (HDQP1, Breast Cancer): 0.7294 | AUC (HEC1B, Endometrial/Uterine Cancer): 0.8662 | AUC (HEC6, Endometrial/Uterine Cancer): 0.9741 | AUC (HEC50B, Endometrial/Uterine Cancer): 1 | AUC (HEL9217, AML): 0.6119 | AUC (HEL, AML): 0.5914 | AUC (HEP3B217, Liver Cancer): 0.7234 | AUC (HEPG2, Liver Cancer): 0.8554 | AUC (HEYA8, Ovarian Cancer): 0.9784 | AUC (HGC27, Gastric Cancer): 0.9226 | AUC (HH, Lymphoma): 0.7764 | AUC (HOS, Osteosarcoma): 0.9517 | AUC (HPBALL, T-acute leukemia): 0.8767 | AUC (HS294T, Melanoma): 0.8326 | AUC (HS766T, Pancreatic Cancer): 0.7648 | AUC (HSC2, Head and Neck Cancer): 0.6896 | AUC (HSC3, Head and Neck Cancer): 0.8176 | AUC (HT29, Colon/Colorectal Cancer): 0.7629 | AUC (HT115, Colon/Colorectal Cancer): 1 | AUC (HT144, Melanoma): 0.8574 | AUC (HT1197, Bladder Cancer): 0.9829 | AUC (HT, B-cell Lymphoma): 0.6247 | AUC (HUCCT1, Bile Duct Cancer): 0.8158 | AUC (HUG1N, Gastric Cancer): 0.7448 | AUC (HUH1, Liver Cancer): 0.7158 | AUC (HUH7, Liver Cancer): 1 | AUC (HUH28, Bile Duct Cancer): 0.821 | AUC (HUPT3, Pancreatic Cancer): 0.6895 | AUC (HUPT4, Pancreatic Cancer): 0.6862 | AUC (HUT78, Lymphoma): 0.9441 | AUC (IALM, Lung Cancer): 0.6559 | AUC (IGR37, Melanoma): 0.6843 | AUC (IGROV1, Ovarian Cancer): 0.8359 | AUC (IM95, Gastric Cancer): 0.7117 | AUC (IPC298, Melanoma): 0.8033 | AUC (ISHIKAWAHERAKLIO02ER, Endometrial/Uterine Cancer): 0.9178 | AUC (ISTMES1, Lung Cancer): 0.7574 | AUC (J82, Bladder Cancer): 0.8707 | AUC (JEKO1, Lymphoma): 0.7073 | AUC (JHH1, Liver Cancer): 0.7161 | AUC (JHH4, Liver Cancer): 0.849 | AUC (JHH5, Liver Cancer): 0.5701 | AUC (JHH7, Liver Cancer): 0.6779 | AUC (JHOC5, Ovarian Cancer): 0.8969 | AUC (JHUEM7, Endometrial/Uterine Cancer): 1 | AUC (JVM3, B-cell Leukemia): 0.6743 | AUC (K029AX, Melanoma): 0.7933 | AUC (KALS1, Glioblastoma): 0.6866 | AUC (KARPAS620, Myeloma): 0.9002 | AUC (KATOIII, Gastric Cancer): 0.6951 | AUC (KCL22, CML): 0.6275 | AUC (KD, Rhabdoid): 0.6425 | AUC (KE37, T-acute leukemia): 0.6716 | AUC (KE39, Gastric Cancer): 0.7203 | AUC (KELLY, Neuroblastoma): 0.5242 | AUC (KMBC2, Bladder Cancer): 0.7261 | AUC (KMS11, Myeloma): 0.7944 | AUC (KMS12BM, Myeloma): 0.9973 | AUC (KMS18, Myeloma): 0.7657 | AUC (KMS21BM, Myeloma): 0.9338 | AUC (KMS28BM, Myeloma): 0.817 | AUC (KMS34, Myeloma): 0.8682 | AUC (KNS42, Glioblastoma): 0.8304 | AUC (KNS60, Glioblastoma): 0.7072 | AUC (KNS62, Lung Cancer): 0.8264 | AUC (KP3, Pancreatic Cancer): 0.9118 | AUC (KPNYN, Neuroblastoma): 0.9338 | AUC (KS1, Glioma): 0.6653 | AUC (KU1919, Bladder Cancer): 0.6431 | AUC (KYM1, Rhabdoid): 0.5622 | AUC (KYSE30, Esophageal Cancer): 0.6256 | AUC (KYSE150, Esophageal Cancer): 0.8681 | AUC (KYSE410, Esophageal Cancer): 0.9564 | AUC (KYSE510, Esophageal Cancer): 0.7247 | AUC (KYSE520, Esophageal Cancer): 0.7055 | AUC (LAMA84, CML): 0.6928 | AUC (LC1SQSF, Lung Cancer): 0.7027 | AUC (LCLC103H, Lung Cancer): 0.9264 | AUC (LI7, Liver Cancer): 0.7203 | AUC (LK2, Lung Cancer): 0.847 | AUC (LMSU, Gastric Cancer): 0.7223 | AUC (LN18, Glioblastoma): 0.7097 | AUC (LNCAPCLONEFGC, Prostate Cancer): 0.6119 | AUC (LOUNH91, Lung Cancer): 0.9465 | AUC (LOVO, Colon/Colorectal Cancer): 0.7392 | AUC (LOXIMVI, Melanoma): 0.8926 | AUC (LS180, Colon/Colorectal Cancer): 0.7453 | AUC (LS411N, Colon/Colorectal Cancer): 0.8492 | AUC (LS1034, Colon/Colorectal Cancer): 0.4819 | AUC (LUDLU1, Lung Cancer): 0.9399 | AUC (LXF289, Lung Cancer): 0.6887 | AUC (M059K, Glioblastoma): 0.8677 | AUC (MALME3M, Melanoma): 0.6048 | AUC (MC116, B-cell Lymphoma): 0.8821 | AUC (MCAS, Ovarian Cancer): 0.7202 | AUC (MCF7, Breast Cancer): 0.7287 | AUC (MDAMB175VII, Breast Cancer): 0.9247 | AUC (MDAMB231, Breast Cancer): 0.7703 | AUC (MDAMB361, Breast Cancer): 0.7016 | AUC (MDAMB436, Breast Cancer): 0.9544 | AUC (MDAMB453, Breast Cancer): 0.5182 | AUC (MDAMB468, Breast Cancer): 1 | AUC (MDST8, Colon/Colorectal Cancer): 0.8223 | AUC (MELHO, Melanoma): 0.7944 | AUC (MESSA, Uterine Sarcoma): 0.7132 | AUC (MFE280, Endometrial/Uterine Cancer): 0.7775
